According to US8263643B2, “Polyphenol compounds with modulating neurotransmitter release” (Sungkyunkwan University Foundation for Corporate …, priority 2007, dated 2012):
Read-outs that look alike come from different tables or passages of the source. Marks after values point to notes of the source that are not given here.

Columns and labels:
[1] = target: T1, membrane fusion caused by SNARE (SNAP25, syntaxin 1A, VAMP2) (UniProt P60879+P63045+Q16623); test: Membrane fusion assay with SNARE-reconstituted liposomes (fluorescence); assay type: biochemical; details: for remaining activity at 20 µM: read-out: Membrane fusion caused by SNARE (% of fusion without inhibitor); for Reduction of membrane fusion (in words): FIG. 3; for Ratio for inhibition by 50% (IR50), membrane fusion: molar concentration ratio phenolic compound:SNAP-25, average of at least three measurements
T1 construct: made in house; host or cells: E. coli (Codon (+) RIL, Novagen)
Description: In order to produce SNARE proteins, SNARE proteins, such as SNAP25 (NM011428), syntaxin 1A (AF217197), and VAMP2 (NM012663), were purified in biologically transformed E. coli (Codon (+) RIL, Novagen).
In order to prepare liposome (fine membrane) marked with a fluorescent substance, POPC (62 mol %), DOPS (35 mol %), NBD-PS (1.5 mol %) and a fluorescent substance Rhodamin-PE (1.5 mol %) were mixed to obtain 10 mM of liposome (v-vesicle). Also, in order to prepare a liposome not marked with a fluorescent substance, DOPS and POPC were mixed in a molar concentration ratio of 35:65 to obtain 50 mM of liposome (t-vesicle). In order to prepare a complex of the purified SNAP25 and syntaxin 1a, the SNAP25 and the syntaxin 1a were mixed in a molar concentration ratio of 1:1, and then were reacted at room temperature for 1 hour. Then, the resultant mixture and the liposome not marked with a fluorescent substance were mixed in a molar ratio of 100:1. The VAMP2 and the liposome marked with a fluorescent substance were mixed in a molar ratio of 50:1. Then, each of the two kinds of liposomes was dialyzed by using 10 kDa dialyzing membrane through agitation at 4° C. for 24 hours, and the liposomes were mixed in a ratio of 3:7 (v-vesicle t-visicle). Next, fluorescence was measured by using a fluorometer (SpectraMax M2 manufactured by Molecular Device).
Herein, 100% indicates the degree of membrane fusion in the state where no inhibitor was added. As the value is smaller, the inhibiting degree is higher.

[2] = target: T2, SNARE complex (SNAP25, SynH3, Vps) (UniProt P60879+P63045+Q16623); test: SDS-PAGE analysis of SNARE complex formation; assay type: biochemical; details: for Inhibition of SNARE complex formation (in words): FIG. 2, concentration series; for SNARE complex formation (%): control = 100, footnote: [phenolic compound]:SNAP-25 = 1:1, SNARE proteins 10 μM each, polyphenol 100 μM, room temperature 30 min; for Ratio for inhibition by 50% (IR50), SNARE complex formation: molar concentration ratio phenolic compound:SNAP-25, average of at least three measurements
T2 construct: SynH3 (AF217197); Vps (NM012663); made in house; host or cells: E. coli (Codon (+) RIL, Novagen)
Description: A SNARE complex is strong enough so as not to be untwisted by SDS. On the basis of such a property, a SDS-PAGE analysis was performed in order to determine the formation of a SNARE complex. Polyphenol compounds used in the present Example were purchased from Sigma-Aldrich, Wako Chemical, and Extrasynthese.
In order to produce SNARE proteins, SNARE proteins, such as, SNAP25 (NM011428), syntaxin 1A (AF217197), VAMP2 (NM012663), SynH3 (AF217197), and Vps (NM012663), were purified in biologically transformed E. coli (Codon (+) RIL, Novagen).
Then, the materials were quickly mixed by a vortex, and were reacted at room temperature for 30 minutes. […]

PC12 cell = test: Inhibition of [3H]-norepinephrine release from PC12 cells; assay type: cell-based; details: normal PC12 cells, FIG. 4
Description: PC12 cells were cultured in a Ham's F12K medium where 10% […], 5% fetal bovine serum, and antibiotics were added in a collagen-coated plate (60 mm dish). In subculture, after sucking of the medium, 2 ml of PBS was added and cells were separated from a dish wall through pipetting. Then, centrifugation with 1,000×g for 5 minutes was carried out to obtain cells. A new medium was introduced, and a cell pellet was dispersed through pipetting and was loaded onto a new culture plate. And culture was carried out at 37° C. in a culture medium providing 5% CO2 gas. [^3H]-norepinephrine used for the experiment was purchased from Amersham. After sucking of the medium in the plate of PC12 cells, PBS was added and cells were separated from a plate wall. Then, the number of cells was measured by a hemacytometer, and the cells were dispersedly inoculated into a new medium at a concentration of 2×10^5 cell/ml. After 24 hours, a buffer solution ([^3H]—NE, 1.5 μCi/ml) for assay of norepinephrine was added, and then the cells were induced in a carbon dioxide incubator for 90 minutes. After the reaction, the buffer solution was removed and the cells were washed three times with PBS. Then, a new medium and each polyphenol compound were loaded and a reaction was performed for 30 minute. […]

[3] = 20 μM phenolic compound, 100% = no inhibitor added

T1 sequence (P60879 whole entry, the tested form may be a part): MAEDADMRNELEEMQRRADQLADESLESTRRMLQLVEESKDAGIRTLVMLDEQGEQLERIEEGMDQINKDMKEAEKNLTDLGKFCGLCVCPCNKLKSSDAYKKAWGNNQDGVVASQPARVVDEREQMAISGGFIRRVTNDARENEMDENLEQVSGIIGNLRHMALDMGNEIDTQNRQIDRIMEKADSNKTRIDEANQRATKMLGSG
T1 sequence (Q16623 whole entry, the tested form may be a part): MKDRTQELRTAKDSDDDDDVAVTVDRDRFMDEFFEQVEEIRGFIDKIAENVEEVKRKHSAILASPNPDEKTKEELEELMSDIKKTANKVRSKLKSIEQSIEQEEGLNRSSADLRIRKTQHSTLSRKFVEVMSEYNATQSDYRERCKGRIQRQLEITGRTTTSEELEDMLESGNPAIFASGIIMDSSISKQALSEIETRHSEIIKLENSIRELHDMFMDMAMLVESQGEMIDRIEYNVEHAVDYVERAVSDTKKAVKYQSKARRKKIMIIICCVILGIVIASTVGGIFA
T1 sequence (P63045 whole entry, the tested form may be a part): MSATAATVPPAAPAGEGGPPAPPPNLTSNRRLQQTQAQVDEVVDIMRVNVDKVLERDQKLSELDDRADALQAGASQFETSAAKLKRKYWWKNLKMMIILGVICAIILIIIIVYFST
T2 sequence (P60879 whole entry): as the sequence (P60879 whole entry, the tested form may be a part) above
T2 sequence (Q16623 192-254 limits assumed): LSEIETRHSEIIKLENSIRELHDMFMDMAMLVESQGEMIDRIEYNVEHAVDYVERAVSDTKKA
T2 sequence (P63045 2-94 limits assumed): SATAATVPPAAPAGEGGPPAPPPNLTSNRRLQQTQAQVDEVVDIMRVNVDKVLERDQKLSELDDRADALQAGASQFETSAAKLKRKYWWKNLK

remaining activity at 20 µM [1, 3]	Reduction of membrane fusion (in words) [1]	Ratio for inhibition by 50% (IR50), membrane fusion [1]	SNARE complex formation (%) [2]	Ratio for inhibition by 50% (IR50), SNARE complex formation [2]	SMILES	Inhibition of SNARE complex formation (in words) [2]	Norepinephrine release inhibiting effect (in words) (PC12 cell)	Membrane fusion caused by SNARE (% of fusion without inhibitor) [1, 3]	remaining activity at 20 µM [1]
108 ± 5%	can reduce membrane fusion	>20^b	100.13 ± 7.16%	>60^b	O=c1c(O)c(-c2ccc(O)cc2)oc2cc(O)cc(O)c12 [Kaempferol]	inhibit the formation of a SNARE complex by 50% at a low concentration	–	–	–
65.5 ± 2.09%	can reduce membrane fusion	4.02	86.23 ± 8.14 %	38.2	O=c1cc(-c2ccc(O)c(O)c2)oc2cc(O)cc(O)c12 [Luteolin]	–	–	–	–
43.9 ± 8.38%	can reduce membrane fusion	0.79	72.13 ± 10.13 %	14.9	O=c1c(O)c(-c2cc(O)c(O)c(O)c2)oc2cc(O)cc(O)c12 [Myricetin]	inhibit the formation of a SNARE complex by 50% at a low concentration	relatively high norepinephrine release inhibiting effects	–	–
107 ± 2.89%	–	–	105.02 ± 11.37%	–	C[C@@H]1O[C@@H](O[C@H]2[C@H](Oc3cc(O)c4c(c3)O[C@H](c3ccc(O)cc3)CC4=O)O[C@H](CO)[C@@H](O)[C@@H]2O)[C@H](O)[C@H](O)[C@H]1O [Naringin]	–	–	–	–
92.4 ± 3.38%	–	–	95.61 ± 3.10%	–	Oc1ccc(-c2[o+]c3cc(O)cc(O)c3cc2O)cc1 [Pelargonidin]	–	–	–	–
86.3 ± 3.87%	–	–	115.19 ± 23.74%	–	O=C(CCc1ccc(O)cc1)c1c(O)cc(O)cc1O[C@@H]1O[C@H](CO)[C@@H](O)[C@H](O)[C@H]1O [Phloridzin]	–	–	–	–
33.4 ± 2.24%	can reduce membrane fusion	2.87	79.80 ± 10.77 %	24.9	O=c1c(O)c(-c2ccc(O)c(O)c2)oc2cc(O)cc(O)c12 [Quercetin]	inhibit the formation of a SNARE complex by 50% at a low concentration	–	–	–
96.7 ± 10.6%	–	–	92.86 ± 9.53%	–	C[C@@H]1O[C@@H](OC[C@H]2O[C@@H](Oc3c(-c4ccc(O)c(O)c4)oc4cc(O)cc(O)c4c3=O)[C@H](O)[C@@H](O)[C@@H]2O)[C@H](O)[C@H](O)[C@H]1O [Rutin]	–	–	–	–
116 ± 5.52%	–	–	107.60 ± 13.30%	–	COc1cc2c(c(OC)c1OC)-c1c(cc(OC)c(OC)c1OC)C[C@](C)(O)[C@@H](C)C2 [Schizandrin]	–	–	–	–
78.2 ± 2.47%	–	–	92.25 ± 5.92%	–	COc1cc(C(=O)O)cc(OC)c1O [Syringic acid]	–	–	–	–
108 ± 10.6%	–	–	106.78 ± 30.15%	–	O=C(O)/C=C/c1ccccc1 [Trans-cinnamic acid]	–	–	–	–
99.6 ± 7.63%	–	–	97.23 ± 5.70%	–	COc1cc(C(=O)O)ccc1O [Vanillic acid]	–	–	–	–
123 ± 14.3%	–	–	91.21 ± 11.99%	–	O=C(O)/C=C/c1ccc(O)cc1 [p-Coumaric acid]	–	–	–	–

SMILES	remaining activity at 20 µM [1, 3]	Reduction of membrane fusion (in words) [1]	Ratio for inhibition by 50% (IR50), membrane fusion [1]	SNARE complex formation (%) [2]	Ratio for inhibition by 50% (IR50), SNARE complex formation [2]	Inhibition of SNARE complex formation (in words) [2]	Norepinephrine release inhibiting effect (in words) (PC12 cell)	Membrane fusion caused by SNARE (% of fusion without inhibitor) [1, 3]	remaining activity at 20 µM [1]
O=C(/C=C/c1ccc(O)c(O)c1)c1ccc(O)cc1O [Butein]	16.9 ± 2.98%	can reduce membrane fusion	0.81	88.45 ± 7.09 %	30.5	inhibit the formation of a SNARE complex by 50% at a low concentration	relatively high norepinephrine release inhibiting effects	–	–
COc1ccc([C@@H]2CC(=O)c3c(O)cc(O[C@@H]4O[C@H](CO[C@@H]5O[C@@H](C)[C@H](O)[C@@H](O)[C@H]5O)[C@@H](O)[C@H](O)[C@H]4O)cc3O2)cc1O [Hesperidin]	–	–	–	112.38 ± 10.43%	–	–	–	124.11 ± 15.01%	–
COc1cc(-c2[o+]c3cc(O)cc(O)c3cc2O)cc(OC)c1O [Malvidin]	–	–	–	97.42 ± 6.31%	–	–	–	–	116 ± 5.97%
O=C(O)c1ccc(O)c(O)c1 [Protocatechuic acid]	104 ± 8.19%	–	–	98.38 ± 4.56%	–	–	–	–	–
C[C@@H]1O[C@@H](Oc2c(-c3ccc(O)c(O)c3)oc3cc(O)cc(O)c3c2=O)[C@H](O)[C@H](O)[C@H]1O [Quercitrin]	86 ± 26.1%	–	–	92.18 ± 9.59%	–	–	–	–	–
